Measurements published in ChEMBL document CHEMBL2413072, “Synthesis and in vitro anticancer studies of novel C-2 arylidene congeners of lantadenes” (2013).

How the values were obtained:
Format in all cases: functional
[1] = tested on: HCT-116; assay: Growth inhibition of human HCT116 cells assessed as growth inhibition at 10 uM by sulforhodamine B assay; details: read-out: GI
[2] = tested on: RXF 393; assay: Growth inhibition of human RXF393 cells assessed as growth inhibition at 10 uM by sulforhodamine B assay; details: read-out: GI
[3] = tested on: SR; assay: Growth inhibition of human SR cells assessed as growth inhibition at 10 uM by sulforhodamine B assay; details: read-out: GI
[4] = tested on: NCI-H460; assay: Growth inhibition of human NCI-H460 cells assessed as growth inhibition at 10 uM by sulforhodamine B assay; details: read-out: GI
[5] = tested on: CCRF-CEM; assay: Growth inhibition of human CCRF-CEM cells assessed as cell growth at 10 uM by sulforhodamine B assay; details: read-out: Activity
[6] = tested on: 786-0; assay: Growth inhibition of human 786-0 cells assessed as growth inhibition at 10 uM by sulforhodamine B assay; details: read-out: GI
[7] = tested on: COLO 205; assay: Growth inhibition of human COLO205 cells assessed as cell growth at 10 uM by sulforhodamine B assay; details: read-out: Activity
[8] = tested on: A549; assay: Growth inhibition of human A549/ATCC cells assessed as growth inhibition at 10 uM by sulforhodamine B assay; details: read-out: GI
[9] = tested on: SK-MEL-28; assay: Growth inhibition of human SK-MEL-28 cells assessed as growth inhibition at 10 uM by sulforhodamine B assay; details: read-out: GI
[10] = tested on: SNB-19; assay: Growth inhibition of human SNB19 cells assessed as cell growth at 10 uM by sulforhodamine B assay; details: read-out: Activity
[11] = tested on: Malme-3M; assay: Growth inhibition of human MALME-3M cells assessed as growth inhibition at 10 uM by sulforhodamine B assay; details: read-out: GI
[12] = tested on: UACC-62; assay: Growth inhibition of human UACC62 cells assessed as growth inhibition at 10 uM by sulforhodamine B assay; details: read-out: GI
[13] = tested on: TK-10; assay: Growth inhibition of human TK10 cells assessed as cell growth at 10 uM by sulforhodamine B assay; details: read-out: Activity
[14] = Growth inhibition of human Hs 578T cells assessed as growth inhibition at 10 uM by sulforhodamine B assay; details: read-out: GI
[15] = tested on: BT-549; assay: Growth inhibition of human BT549 cells assessed as growth inhibition at 10 uM by sulforhodamine B assay; details: read-out: GI
[16] = tested on: SNB-75; assay: Growth inhibition of human SNB75 cells assessed as cell growth at 10 uM by sulforhodamine B assay; details: read-out: Activity
[17] = tested on: UACC-62; assay: Growth inhibition of human UACC62 cells assessed as cell growth at 10 uM by sulforhodamine B assay; details: read-out: Activity
[18] = tested on: NCI-H23; assay: Growth inhibition of human NCI-H23 cells assessed as cell growth at 10 uM by sulforhodamine B assay; details: read-out: Activity
[19] = tested on: IGROV-1; assay: Growth inhibition of human IGROV1 cells assessed as cell growth at 10 uM by sulforhodamine B assay; details: read-out: Activity
[20] = tested on: SK-MEL-5; assay: Growth inhibition of human SK-MEL-5 cells assessed as cell growth at 10 uM by sulforhodamine B assay; details: read-out: Activity
[21] = tested on: NCI-H23; assay: Growth inhibition of human NCI-H23 cells assessed as growth inhibition at 10 uM by sulforhodamine B assay; details: read-out: GI
[22] = tested on: HOP-62; assay: Growth inhibition of human HOP62 cells assessed as cell growth at 10 uM by sulforhodamine B assay; details: read-out: Activity
[23] = tested on: 786-0; assay: Growth inhibition of human 786-0 cells assessed as cell growth at 10 uM by sulforhodamine B assay; details: read-out: Activity
[24] = tested on: A498; assay: Growth inhibition of human A498 cells assessed as growth inhibition at 10 uM by sulforhodamine B assay; details: read-out: GI
[25] = tested on: SW-620; assay: Growth inhibition of human SW620 cells assessed as growth inhibition at 10 uM by sulforhodamine B assay; details: read-out: GI
[26] = Growth inhibition of human NCI-ADR-RES cells assessed as growth inhibition at 10 uM by sulforhodamine B assay; details: read-out: GI
[27] = tested on: DU-145; assay: Growth inhibition of human DU145 cells assessed as cell growth at 10 uM by sulforhodamine B assay; details: read-out: Activity
[28] = tested on: MCF7; assay: Growth inhibition of human MCF7 cells assessed as cell growth at 10 uM by sulforhodamine B assay; details: read-out: Activity
[29] = tested on: PC-3; assay: Growth inhibition of human PC3 cells assessed as cell growth at 10 uM by sulforhodamine B assay; details: read-out: Activity
[30] = tested on: SF-295; assay: Growth inhibition of human SF295 cells assessed as cell growth at 10 uM by sulforhodamine B assay; details: read-out: Activity
[31] = tested on: T47D; assay: Growth inhibition of human T47D cells assessed as cell growth at 10 uM by sulforhodamine B assay; details: read-out: Activity
[32] = tested on: TK-10; assay: Growth inhibition of human TK10 cells assessed as growth inhibition at 10 uM by sulforhodamine B assay; details: read-out: GI
[33] = tested on: SR; assay: Growth inhibition of human SR cells assessed as cell growth at 10 uM by sulforhodamine B assay; details: read-out: Activity
[34] = tested on: HCT-15; assay: Growth inhibition of human HCT15 cells assessed as growth inhibition at 10 uM by sulforhodamine B assay; details: read-out: GI
[35] = tested on: ACHN; assay: Growth inhibition of human ACHN cells assessed as growth inhibition at 10 uM by sulforhodamine B assay; details: read-out: GI
[36] = tested on: SK-MEL-2; assay: Growth inhibition of human SK-MEL-2 cells assessed as cell growth at 10 uM by sulforhodamine B assay; details: read-out: Activity
[37] = tested on: NCI-H460; assay: Growth inhibition of human NCI-H460 cells assessed as cell growth at 10 uM by sulforhodamine B assay; details: read-out: Activity
[38] = tested on: MOLT-4; assay: Growth inhibition of human MOLT4 cells assessed as cell growth at 10 uM by sulforhodamine B assay; details: read-out: Activity
[39] = tested on: HL-60(TB); assay: Growth inhibition of human HL-60(TB) cells assessed as cell growth at 10 uM by sulforhodamine B assay; details: read-out: Activity
[40] = tested on: MDA-MB-435; assay: Growth inhibition of human MDA-MB-435 cells assessed as cell growth at 10 uM by sulforhodamine B assay; details: read-out: Activity
[41] = tested on: IGROV-1; assay: Growth inhibition of human IGROV1 cells assessed as growth inhibition at 10 uM by sulforhodamine B assay; details: read-out: GI
[42] = tested on: HOP-92; assay: Growth inhibition of human HOP92 cells assessed as growth inhibition at 10 uM by sulforhodamine B assay; details: read-out: GI
[43] = tested on: HOP-92; assay: Growth inhibition of human HOP92 cells assessed as cell growth at 10 uM by sulforhodamine B assay; details: read-out: Activity
[44] = tested on: OVCAR-5; assay: Growth inhibition of human OVCAR5 cells assessed as cell growth at 10 uM by sulforhodamine B assay; details: read-out: Activity
[45] = tested on: U-251; assay: Growth inhibition of human U251 cells assessed as growth inhibition at 10 uM by sulforhodamine B assay; details: read-out: GI
[46] = tested on: OVCAR-4; assay: Growth inhibition of human OVCAR4 cells assessed as cell growth at 10 uM by sulforhodamine B assay; details: read-out: Activity
[47] = tested on: HCT-116; assay: Growth inhibition of human HCT116 cells assessed as cell growth at 10 uM by sulforhodamine B assay; details: read-out: Activity
[48] = tested on: UO-31; assay: Growth inhibition of human UO31 cells assessed as growth inhibition at 10 uM by sulforhodamine B assay; details: read-out: GI
[49] = tested on: NCI-H322M; assay: Growth inhibition of human NCI-H322M cells assessed as cell growth at 10 uM by sulforhodamine B assay; details: read-out: Activity

## CC1(C)C[C@@H](O)[C@]2(C(=O)O)CC[C@]3(C)C(=CC[C@@H]4[C@@]5(C)CC[C@H](O)C(C)(C)[C@@H]5CC[C@]43C)[C@@H]2C1
[1]
  inhibition of growth at 10 µM: 17.3%
[2]
  inhibition of growth at 10 µM: < 10%
[3]
  inhibition of growth at 10 µM: 22%
[4]
  inhibition of growth at 10 µM: < 10%
[5]
  growth at 10 µM: 88.4%
[6]
  inhibition of growth at 10 µM: 13.8%
[7]
  growth at 10 µM: 109%
[8]
  inhibition of growth at 10 µM: 12.4%
[9]
  inhibition of growth at 10 µM: < 10%
[10]
  growth at 10 µM: 98.2%
[11]
  inhibition of growth at 10 µM: < 10%
[12]
  inhibition of growth at 10 µM: 11.8%
[13]
  growth at 10 µM: 99.7%
[14]
  inhibition of growth at 10 µM: < 10%
[15]
  inhibition of growth at 10 µM: < 10%
[16]
  growth at 10 µM: 97.7%
[17]
  growth at 10 µM: 88.2%
[18]
  growth at 10 µM: 102%
[19]
  growth at 10 µM: 97.6%
[20]
  growth at 10 µM: 98.7%
[21]
  inhibition of growth at 10 µM: < 10%
[22]
  growth at 10 µM: 98.9%
[23]
  growth at 10 µM: 90.7%
[24]
  inhibition of growth at 10 µM: < 10%
[25]
  inhibition of growth at 10 µM: < 10%
[26]
  inhibition of growth at 10 µM: < 10%
[27]
  growth at 10 µM: 103%
[28]
  growth at 10 µM: 96.4%
[29]
  growth at 10 µM: 76.5%
[30]
  growth at 10 µM: 153%
[31]
  growth at 10 µM: 93%
[32]
  inhibition of growth at 10 µM: < 10%
[33]
  growth at 10 µM: 78%
[34]
  inhibition of growth at 10 µM: < 10%
[35]
  inhibition of growth at 10 µM: < 10%
[36]
  growth at 10 µM: 97.9%
[37]
  growth at 10 µM: 101%
[38]
  growth at 10 µM: 78.3%
[39]
  growth at 10 µM: 82%
[40]
  growth at 10 µM: 116%
[41]
  inhibition of growth at 10 µM: < 10%
[42]
  inhibition of growth at 10 µM: < 10%
[43]
  growth at 10 µM: 103%
[44]
  growth at 10 µM: 119%
[45]
  inhibition of growth at 10 µM: < 10%
[46]
  growth at 10 µM: 96%
[47]
  growth at 10 µM: 82.7%
[48]
  inhibition of growth at 10 µM: 13.9%
[49]
  growth at 10 µM: 99%

## CC1(C)C[C@@H](O)[C@]2(C(=O)O)CC[C@]3(C)C(=CC[C@@H]4[C@@]5(C)CCC(=O)C(C)(C)[C@@H]5CC[C@]43C)[C@@H]2C1
[1]
  inhibition of growth at 10 µM: 21.2%
[2]
  inhibition of growth at 10 µM: < 10%
[3]
  inhibition of growth at 10 µM: 16.3%
[4]
  inhibition of growth at 10 µM: < 10%
[5]
  growth at 10 µM: 87.5%
[6]
  inhibition of growth at 10 µM: 13.8%
[7]
  growth at 10 µM: 101%
[8]
  inhibition of growth at 10 µM: 21%
[9]
  inhibition of growth at 10 µM: < 10%
[10]
  growth at 10 µM: 94.2%
[11]
  inhibition of growth at 10 µM: 12.9%
[12]
  inhibition of growth at 10 µM: 19.5%
[13]
  growth at 10 µM: 106%
[14]
  inhibition of growth at 10 µM: < 10%
[15]
  inhibition of growth at 10 µM: 10.1%
[16]
  growth at 10 µM: 101%
[17]
  growth at 10 µM: 80.5%
[18]
  growth at 10 µM: 92.3%
[19]
  growth at 10 µM: 92.3%
[20]
  growth at 10 µM: 87.8%
[21]
  inhibition of growth at 10 µM: < 10%
[22]
  growth at 10 µM: 88.7%
[23]
  growth at 10 µM: 86.2%
[24]
  inhibition of growth at 10 µM: < 10%
[25]
  inhibition of growth at 10 µM: < 10%
[26]
  inhibition of growth at 10 µM: < 10%
[27]
  growth at 10 µM: 113%
[28]
  growth at 10 µM: 81.4%
[29]
  growth at 10 µM: 59.3%
[30]
  growth at 10 µM: 80.7%
[31]
  growth at 10 µM: 80.8%
[32]
  inhibition of growth at 10 µM: < 10%
[33]
  growth at 10 µM: 83.7%
[34]
  inhibition of growth at 10 µM: 24.6%
[35]
  inhibition of growth at 10 µM: < 10%
[36]
  growth at 10 µM: 96%
[37]
  growth at 10 µM: 94.7%
[38]
  growth at 10 µM: 78.7%
[39]
  growth at 10 µM: 75.2%
[40]
  growth at 10 µM: 102%
[41]
  inhibition of growth at 10 µM: < 10%
[42]
  inhibition of growth at 10 µM: 24.6%
[43]
  growth at 10 µM: 75.4%
[44]
  growth at 10 µM: 108%
[45]
  inhibition of growth at 10 µM: 10.8%
[46]
  growth at 10 µM: 85.9%
[47]
  growth at 10 µM: 78.8%
[48]
  inhibition of growth at 10 µM: 13.9%
[49]
  growth at 10 µM: 97.5%
